Results: patent US4914215A, “Aminopropyl thiophene compounds” (The United States of America as represented by the United …, priority 1989, dated 1990)

Assays:
brain [1] = details: five minutes after administration; versus HIPDM; cited from earlier work
lungs = details: versus HIPDM; cited from earlier work
brain [2] = assay: Tissue distribution of 5-halothiophene-2-isopropylamines in Fisher rats; format: in vivo; details: in words
Source text: 5-HALOTHIOPHENE-2-ISOPROPYLAMINES
Mean Brian. % Dose/gm (Mean Brain:Blood)

SMILES | amount of activity in the brain relative to HIPDM (brain [1]) | clearance of the lungs relative to HIPDM (lungs) | brain retention (brain [2]) | brain uptake (brain [2]) | brain-to-blood ratios (brain [2])
CC(C)NC(C)Cc1ccc(I)cc1 (stereo not shown) [IMP, N-isopropyl-p-iodoamphetamine] | almost twice | faster |  |  | 
CC(N)Cc1ccc([82Br])s1 (stereo not shown) [Br-82, 2-(2-aminopropyl)-5-bromothiophene] |  |  | good brain uptake and retention | good brain uptake | 
CC(N)Cc1ccc([125I])s1 (stereo not shown) [Compound I-125, 2-(2-aminopropyl)-5-radiohalothiophene] |  |  | good retention | high brain uptake | high brain-to-blood ratios
